# Data reported in patent publication US20090105234A1, “EP4 Receptor Agonist, Compositions and Methods Thereof” (priority 2005, published 2009).
# Legend:
# [1] = Ocular tolerability in animal species compared to compounds of WO 2004/085430; type: in vivo; conditions: compared to compounds disclosed in WO 2004/085430 (i.e., Example 2)
# [2] = Vehicle panel-controlled 5 day ocular tolerability study (topical, bilateral, b.i.d); type: in vivo, Dutch-Belted rabbits; conditions: 5 days, 2.2 μM (25 μL) ophthalmic solution
# [3] = Eye closure after ocular dosing; type: in vivo, New Zealand White rabbits; conditions: versus Example 2 of WO 2004/085430
# [4] = Ocular adverse effects (conjuctival hyperemia, partial eye closure, etc.); type: in vivo, Cynomolgus Monkeys; conditions: versus Example 2 of WO 2004/085430
# [5] = tested on: ROS 17/2.8 cells; test: Intracellular cAMP in osteoblastic cells; type: cell-based; conditions: ROS 17/2.8 rat osteosarcoma cells
# Method: (§1) RCT-1 and RCT-3 are clonal cell lines immortalized by SV40 large T antigen from cells released from fetal rat calvair by a cmbination collagenase/hyaluronidase digestion. RCT-1 cells, derived from cells released during the first 10 minutes of digestion (fraction I), are cultured in RPMI 1640 medium (BRL) with 10% fetal bovine serum and 0.4 mg/ml G418 (BRL). These cells differentiate and express osteoblastic features upon retinoic acid treatment. RCT-3 cells, immortalized from osteoblast-enriched fraction III cells, are cultured in F-12 medium (BRL) with 5% Fetal bovine serum and 0.4 mg/ml G418. TRAB-11 cells are also immortalized by SV40 large T antigen from adult rat tibia and are cultured in RPMI 1640 medium with 10% FBS and 0.4 mg/ml G418. ROS 17/2.8 rat osteosarcoma cells are cultured in F-12 containing 5% FBS. Osteoblast-enriched (fraction III) primary fetal rat calvaria cells are obtained by collagenase/hyaluronidase digestion of calvariae of 19 day-old rat fetuses. See Rodan et al., Growth stimulation of rat calvaria osieoblastic cells by acidic FGF, Endocrinology, 121, 1919-1923 (1987), which is incorporated by reference herein in its entirety. Cells are released during 30-50 minutes digestion (fraction III) and are cultured in F-12 medium containing 5% FBS. […]
# [6] = tested on: RCT-3 cells; test: Intracellular cAMP in osteoblastic cells; type: cell-based, rat
# Method: as §1
# [7] = tested on: TRAB-11 cells; test: Intracellular cAMP in osteoblastic cells; type: cell-based, rat
# Method: as §1
# [8] = tested on: EP4 mRNA in RP-1 periosteal cells; test: EP4 mRNA levels (Northern blot) in RP-1 periosteal cells; type: cell-based, rat; conditions: 10^−6 M
# Method: (§2) RP-1 periosteal cells are spontaneously immortalized from primary cultures of periosteal cells from tibae of 4-week old Sprague-Dawley rats and are cultured in DMEM (BRL, Gaithersburg, Md.) with 10% fetal bovine serum (JRH Biosciences, Lenexa, Kans.).
# (§3) Total RNA is extracted from the tibial metaphysis or diaphysis and calvaria using a guanidinium isothiocyanate-phenol-chloroform method after pulverizing frozen bone samples by a tissue homogenizer. See P. Chomczynski et al., Single-step method of RNA isolation by acid guanidium thiocyanate-phenol-chloroform extraction., Analyt Biochem, 162, 156-159 (1987), which is incorporated by reference herein in its entirety. RNA samples ([…]) are separated on 0.9% agarose/formaldehyde gels and transferred onto nylon membranes (Boehringer Mannheim, Germany). Membranes are prehybridized in Hybrisol I (Oncor, Gaithersburg, Md.) and 0.5 mg/ml sonicated salmon sperm DNA (Boehringer) at 42° C. for 3 hours and are hybridized at 42° C. with rat EP2 and mouse EP4 cDNA probes labeled with [^32P]-dCTP (Amersham, Buckinghamshire, UK) by random priming using the rediprime kit (Amersham). After hybridization, membranes are washed 4 times in 2×SSC+0.1% SDS at room temperature for a total of 1 hour and once with 0.2×SSC+0.1% SDS at 55° C. for 1 hour and then exposed to Kodak XAR 2 film at −70° C. using intensifying screens. […]
# [9] = tested on: EP4 mRNA in RCT-3 cells; test: EP4 mRNA levels (Northern blot) in RCT-3 cells; type: cell-based, rat
# Method: as §1
# [10] = tested on: EP2 mRNA in RP-1 cells; test: EP2 mRNA expression (Northern blot) in RP-1 cells; type: cell-based, rat
# Method: as §2, §3
# [11] = tested on: EP4 mRNA in bone tissue; test: EP4 mRNA levels in vivo in bone tissue after systemic PGE2; conditions: five-week-old male rats, injected 3-6 mg/Kg
# Text: For mRNA localization experiments, 5-week old Sprague-Dawley rats (Charles River) are euthanized by CO2, their tibiae and calvariae are excised, cleaned of soft tissues and frozen immediately in liquid nitrogen. […] Animals are euthanized at several time points post-injection and their tibiae and calvariae, as well as samples from lung and kidney tissues are frozen in liquid nitrogen.
# as §3, with “(Amersham).” for “(Amersham). After hybridization, membranes are washed 4 times in 2×SSC+0.1% SDS at room temperature for a total of 1 hour and once with 0.2×SSC+0.1% SDS at 55° C. for 1 hour and then exposed to Kodak XAR 2 film at −70° C. using intensifying screens.”
# [12] = tested on: EP2 mRNA in bone tissue; test: EP2 mRNA in vivo in bone tissue after systemic PGE2; conditions: rats, systemic administration
# Method: (§4) For mRNA localization experiments, 5-week old Sprague-Dawley rats (Charles River) are euthanized by CO2, their tibiae and calvariae are excised, cleaned of soft tissues and frozen immediately in liquid nitrogen. For EP4 regulation experiments, 6-week old rats are given a single injection of either vehicle (7% ethanol in sterile water) or an anabolic dose of PGE2 (Cayman Chemical, Ann Arbor, Mich.), 3-6 mg/kg in the same vehicle) intraperitoneally. Animals are euthanized at several time points post-injection and their tibiae and calvariae, as well as samples from lung and kidney tissues are frozen in liquid nitrogen.
# Total RNA is extracted from the tibial metaphysis or diaphysis and calvaria using a guanidinium isothiocyanate-phenol-chloroform method after pulverizing frozen bone samples by a tissue homogenizer. See P. Chomczynski et al., Single-step method of RNA isolation by acid guanidium thiocyanate-phenol-chloroform extraction., Analyt Biochem, 162, 156-159 (1987), which is incorporated by reference herein in its entirety. RNA samples ([…]) are separated on 0.9% agarose/formaldehyde gels and transferred onto nylon membranes (Boehringer Mannheim, Germany). […]
# [13] = tested on: EP4 mRNA in bone marrow cells; test: In situ hybridization, localization of EP4 expression in bone; type: in vivo; conditions: single anabolic dose, versus vehicle-injected rats
# Method: as §4
# Frozen tibiae are sectioned coronally at […] thickness and sections are mounted on charged slides (Probe On Plus, Fisher Scientific, Springfield, N.J.) and are kept at −70° C. until hybridization. cRNA probes are labeled with ^35S-UTPgS (ICN, Costa Mesa, Calif.) using a Riboprobe II kit (Promega Madison, Wis.). Hybridization is performed overnight at 50° C. See M. Weinreb et al., Different pattern of alkaline phosphalase, osteopontin and osteocalcin expression in developing rat bone visualized by in-situ hybridization, J. Bone Miner Res., 5, 83′-842 (1990) and D. Shinar et al., Expression of alphav and beta3 integrin subunits in rat osteoclasts in situ, J. Bone Miner. Res., 8, 403-414 (1993), which are both incorporated by reference herein in their entirety. […]
SMILES,ocular tolerability [1],drug treatment related findings [2],improvement in eye closure [3] [fold],"improvement in ocular adverse effects (conjuctival hyperemia, partial eye closure, etc.) [4]",effect on intracellular cAMP [5],effect on intracellular cAMP [6],effect on intracellular cAMP [7],effect on EP4 mRNA levels [8],time of peak EP4 mRNA levels after treatment [8] [h],effect on EP4 mRNA levels [9],EP2 mRNA expression before or after treatment [10],effect on EP4 mRNA levels in the tibial diaphysis [11],time of peak EP4 mRNA levels in the tibial diaphysis after injection [11] [h],induction of EP2 mRNA in bone tissue [12],expression of EP4 in bone marrow cells [13]
"CC(C)OC(=O)c1ccc(CCCN2C(=O)OCC[C@@H]2/C=C/[C@@H](O)C(F)(F)c2cccc(Br)c2)s1 [Example 1, Isopropyl 5-(3-{(4R)-4-[(1E,3R)-4-(3-bromophenyl)-4,4-difluoro-3-hydroxybut-1-en-1-yl]-2-oxo-1,3-oxazinan-3-yl}propyl)thiophene-2-carboxylate]",improved ocular tolerability,no drug treatment related findings,5,3-5 fold,,,,,,,,,,,
CCCCC[C@H](O)/C=C/[C@H]1[C@H](O)CC(=O)[C@@H]1C/C=C\CCCC(=O)O [PGE2],,,,,no effect,markedly induced,markedly induced,rapidly increases EP4 mRNA levels,2,no effect on EP4 mRNA levels,not expressed,rapidly increased EP4 mRNA levels,2,does not induce EP2 mRNA,increased the expression of EP4
